Experimental data reported in ChEMBL document CHEMBL4368860, “Structure activity relationship of 2-arylalkynyl-adenine derivatives as human A3 adenosine receptor antagonists” (Medchemcomm, 2018).

What was measured:
[1] = target: T1, Adenosine receptor A2a (Homo sapiens, UniProt P29274); assay: Displacement of [3H]ZM241385 from human A2A receptor expressed in HEK293 cell membranes at 10 uM; conditions: for inhibition at 10 µM: HEK293 cell membranes expressing human A2A receptor, probe [3H]ZM241385; for inhibition (INH): hek293, 10 µM
T1 sequence (P29274 whole entry): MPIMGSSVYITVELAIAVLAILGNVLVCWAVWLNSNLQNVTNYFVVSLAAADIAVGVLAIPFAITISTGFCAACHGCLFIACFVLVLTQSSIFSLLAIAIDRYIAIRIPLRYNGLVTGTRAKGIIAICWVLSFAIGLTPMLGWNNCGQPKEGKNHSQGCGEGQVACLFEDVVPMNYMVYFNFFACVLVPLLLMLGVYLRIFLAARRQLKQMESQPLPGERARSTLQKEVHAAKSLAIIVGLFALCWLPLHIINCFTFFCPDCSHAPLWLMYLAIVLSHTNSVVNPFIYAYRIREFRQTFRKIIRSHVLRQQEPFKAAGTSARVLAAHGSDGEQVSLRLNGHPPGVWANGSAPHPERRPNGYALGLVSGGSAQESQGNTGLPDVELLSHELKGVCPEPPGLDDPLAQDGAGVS

[2] = target: T2, Adenosine receptor A3 (Homo sapiens, UniProt P0DMS8); assay: Displacement of [125I]I-AB-MECA from recombinant human adenosine A3 receptor expressed in CHO cell membranes
T2 sequence (P0DMS8 whole entry): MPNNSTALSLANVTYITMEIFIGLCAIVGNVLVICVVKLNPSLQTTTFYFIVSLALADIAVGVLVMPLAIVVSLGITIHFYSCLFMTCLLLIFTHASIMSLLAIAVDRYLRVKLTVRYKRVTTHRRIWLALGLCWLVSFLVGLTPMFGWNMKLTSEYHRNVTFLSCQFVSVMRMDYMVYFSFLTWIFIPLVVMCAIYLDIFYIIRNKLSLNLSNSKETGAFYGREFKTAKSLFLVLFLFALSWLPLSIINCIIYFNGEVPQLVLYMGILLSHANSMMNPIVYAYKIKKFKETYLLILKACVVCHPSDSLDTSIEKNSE

[3] = target: T3, Adenosine receptor A1 (Homo sapiens, UniProt P30542); assay: Displacement of [3H]DPCPX from recombinant human A1 receptor expressed in CHO cell membranes
T3 sequence (P30542 whole entry): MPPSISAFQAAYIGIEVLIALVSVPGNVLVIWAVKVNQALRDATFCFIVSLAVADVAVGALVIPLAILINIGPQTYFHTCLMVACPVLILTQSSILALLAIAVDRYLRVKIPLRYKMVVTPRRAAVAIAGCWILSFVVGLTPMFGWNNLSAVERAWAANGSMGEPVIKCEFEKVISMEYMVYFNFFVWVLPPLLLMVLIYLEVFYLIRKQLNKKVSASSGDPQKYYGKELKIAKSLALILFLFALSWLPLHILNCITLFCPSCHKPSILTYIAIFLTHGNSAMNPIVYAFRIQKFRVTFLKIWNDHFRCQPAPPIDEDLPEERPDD

[4] = target: Translocator protein (Homo sapiens, UniProt P30536); assay: Displacement of [3H]PK11195 from human TSPO after 90 mins by scintillation counting method
Translocator protein, sequence (P30536 whole entry): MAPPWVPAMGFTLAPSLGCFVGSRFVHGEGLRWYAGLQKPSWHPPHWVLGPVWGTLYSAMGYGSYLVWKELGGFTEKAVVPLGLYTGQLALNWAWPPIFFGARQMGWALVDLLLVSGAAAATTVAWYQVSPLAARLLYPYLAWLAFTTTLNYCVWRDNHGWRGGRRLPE

[5] = target: D(1A) dopamine receptor (Homo sapiens, UniProt P21728); assay: Displacement of [3H]SCH23390 from human dopamine D1 receptor expressed in HEK293T cell membranes by radioligand binding assay
D(1A) dopamine receptor, sequence (P21728 whole entry): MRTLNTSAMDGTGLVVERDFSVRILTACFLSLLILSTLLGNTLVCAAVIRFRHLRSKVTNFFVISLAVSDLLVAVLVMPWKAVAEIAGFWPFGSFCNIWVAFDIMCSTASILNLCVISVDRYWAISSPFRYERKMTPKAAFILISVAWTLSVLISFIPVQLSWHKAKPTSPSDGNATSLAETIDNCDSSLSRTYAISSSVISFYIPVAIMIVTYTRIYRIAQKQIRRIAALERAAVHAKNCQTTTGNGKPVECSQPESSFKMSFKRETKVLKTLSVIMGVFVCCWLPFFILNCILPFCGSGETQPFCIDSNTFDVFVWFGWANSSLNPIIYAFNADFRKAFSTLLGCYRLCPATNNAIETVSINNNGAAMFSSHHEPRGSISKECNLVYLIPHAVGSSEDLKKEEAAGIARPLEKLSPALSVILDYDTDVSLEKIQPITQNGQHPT

[6] = target: Sigma non-opioid intracellular receptor 1 (Cavia porcellus, UniProt Q60492); assay: Displacement of [3H]-(+)-pentazocine from sigma-1 receptor in guinea pig by radioligand binding assay
Sigma non-opioid intracellular receptor 1, sequence (Q60492 whole entry): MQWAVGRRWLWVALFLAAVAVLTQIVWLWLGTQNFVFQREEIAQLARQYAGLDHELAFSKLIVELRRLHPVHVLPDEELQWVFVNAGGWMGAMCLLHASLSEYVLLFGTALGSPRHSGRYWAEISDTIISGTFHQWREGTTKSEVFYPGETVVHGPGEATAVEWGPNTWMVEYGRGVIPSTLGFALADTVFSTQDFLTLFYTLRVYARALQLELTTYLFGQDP

[7] = target: T4, Adenosine receptor A1 (Homo sapiens) (UniProt P30542); assay: Displacement of [3H]DPCPX from recombinant human A1 receptor expressed in CHO cell membranes at 10 uM
T4 sequence (whole entry): T3 sequence (P30542 whole entry)

[8] = target: 5-hydroxytryptamine receptor 2B (Homo sapiens, UniProt P41595); assay: Displacement of [3H]-LSD from human 5-HT2B receptor expressed in HEK cell by radioligand binding assay
5-hydroxytryptamine receptor 2B, sequence (P41595 whole entry): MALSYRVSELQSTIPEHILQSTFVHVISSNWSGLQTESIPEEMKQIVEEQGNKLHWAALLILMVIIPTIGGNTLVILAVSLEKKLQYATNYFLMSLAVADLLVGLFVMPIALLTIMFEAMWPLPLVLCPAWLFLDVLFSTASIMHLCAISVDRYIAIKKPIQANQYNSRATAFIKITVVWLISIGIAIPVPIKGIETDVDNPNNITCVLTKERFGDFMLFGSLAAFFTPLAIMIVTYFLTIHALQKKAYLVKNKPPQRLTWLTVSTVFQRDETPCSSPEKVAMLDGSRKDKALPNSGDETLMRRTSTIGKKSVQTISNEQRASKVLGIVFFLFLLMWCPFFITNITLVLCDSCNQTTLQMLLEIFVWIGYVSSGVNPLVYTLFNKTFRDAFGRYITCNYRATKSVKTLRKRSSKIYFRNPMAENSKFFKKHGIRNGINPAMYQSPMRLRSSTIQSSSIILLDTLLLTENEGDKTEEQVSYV

[9] = target: Alpha-2C adrenergic receptor (Homo sapiens, UniProt P18825); assay: Displacement of [3H]Rauwolscine from human alpha 2C adrenergic receptor expressed in MDCK cells by radioligand binding assay; format: cell-based
Alpha-2C adrenergic receptor, sequence (P18825 whole entry): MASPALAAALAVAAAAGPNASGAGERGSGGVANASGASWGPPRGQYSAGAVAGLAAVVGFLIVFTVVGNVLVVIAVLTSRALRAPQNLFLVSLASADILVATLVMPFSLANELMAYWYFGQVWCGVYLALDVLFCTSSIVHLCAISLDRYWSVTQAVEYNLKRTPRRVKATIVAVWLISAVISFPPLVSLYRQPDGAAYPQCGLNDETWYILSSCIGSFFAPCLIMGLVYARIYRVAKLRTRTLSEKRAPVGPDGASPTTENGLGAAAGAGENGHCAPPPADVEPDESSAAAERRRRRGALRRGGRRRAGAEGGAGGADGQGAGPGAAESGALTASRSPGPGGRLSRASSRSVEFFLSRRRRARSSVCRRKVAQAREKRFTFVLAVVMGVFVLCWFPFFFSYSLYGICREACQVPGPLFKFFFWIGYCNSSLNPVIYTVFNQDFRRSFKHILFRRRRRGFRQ

[10] = target: Adenosine receptor A3 (Homo sapiens) (UniProt P0DMS8); assay: Displacement of [125I]I-AB-MECA from recombinant human adenosine A3 receptor expressed in CHO cell membranes at 10 uM
[11] = target: T1, Adenosine receptor A2a; assay: Displacement of [3H]ZM241385 from human A2A receptor expressed in HEK293 cell membranes
[12] = target: T5, Adenosine receptor A2b (Homo sapiens, UniProt P29275); assay: Displacement of [3H]-MRS-1754 from human A2B receptor expressed in HEK293 cell membranes at 10 uM; conditions: HEK293 cell membranes expressing human A2B receptor, probe [3H]-MRS-1754
T5 sequence (P29275 whole entry): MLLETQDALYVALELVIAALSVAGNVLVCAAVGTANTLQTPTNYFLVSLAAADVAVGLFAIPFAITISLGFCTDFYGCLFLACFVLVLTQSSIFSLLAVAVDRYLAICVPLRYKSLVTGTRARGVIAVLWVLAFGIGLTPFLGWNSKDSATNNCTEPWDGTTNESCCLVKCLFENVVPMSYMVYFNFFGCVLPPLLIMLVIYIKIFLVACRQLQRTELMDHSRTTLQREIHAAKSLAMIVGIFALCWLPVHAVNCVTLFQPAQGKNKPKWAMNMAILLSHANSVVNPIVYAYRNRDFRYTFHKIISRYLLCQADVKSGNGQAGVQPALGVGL

[13] = target: T6, Sigma intracellular receptor 2 (Rattus norvegicus, UniProt Q5U3Y7); assay: Displacement of [3H]-DTG from sigma 2 receptor in rat PC12 cells by radioligand binding assay; format: cell-based
T6 sequence (Q5U3Y7 whole entry): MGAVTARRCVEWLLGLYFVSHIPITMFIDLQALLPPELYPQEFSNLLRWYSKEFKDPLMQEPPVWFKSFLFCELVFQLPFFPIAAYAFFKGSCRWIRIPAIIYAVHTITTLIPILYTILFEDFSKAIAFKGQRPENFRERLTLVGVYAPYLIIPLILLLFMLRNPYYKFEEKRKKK

[14] = target: Alpha-2B adrenergic receptor (Homo sapiens, UniProt P18089); assay: Displacement of [3H]Rauwolscine from human alpha 2B adrenergic receptor expressed in HEK293T cells by radioligand binding assay; format: cell-based
Alpha-2B adrenergic receptor, sequence (P18089 whole entry): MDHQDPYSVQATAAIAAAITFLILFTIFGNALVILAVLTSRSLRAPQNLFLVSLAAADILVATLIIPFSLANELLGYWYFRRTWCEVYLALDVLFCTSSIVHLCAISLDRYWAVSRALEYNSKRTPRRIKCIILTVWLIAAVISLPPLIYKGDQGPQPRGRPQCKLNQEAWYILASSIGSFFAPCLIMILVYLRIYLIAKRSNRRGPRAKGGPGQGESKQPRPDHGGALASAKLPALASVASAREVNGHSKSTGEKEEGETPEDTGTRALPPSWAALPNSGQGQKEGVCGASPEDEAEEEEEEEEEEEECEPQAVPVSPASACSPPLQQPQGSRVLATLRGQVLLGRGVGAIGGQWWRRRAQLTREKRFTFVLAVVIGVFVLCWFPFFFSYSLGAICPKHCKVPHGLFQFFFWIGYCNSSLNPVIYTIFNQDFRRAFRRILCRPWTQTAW

[15] = target: T7, Adenosine receptor A3 (Mus musculus) (UniProt Q61618); assay: Displacement of [125I]I-AB-MECA from recombinant mouse adenosine A3 receptor expressed in HEK293 cell membranes at 10 uM
T7 sequence (whole entry): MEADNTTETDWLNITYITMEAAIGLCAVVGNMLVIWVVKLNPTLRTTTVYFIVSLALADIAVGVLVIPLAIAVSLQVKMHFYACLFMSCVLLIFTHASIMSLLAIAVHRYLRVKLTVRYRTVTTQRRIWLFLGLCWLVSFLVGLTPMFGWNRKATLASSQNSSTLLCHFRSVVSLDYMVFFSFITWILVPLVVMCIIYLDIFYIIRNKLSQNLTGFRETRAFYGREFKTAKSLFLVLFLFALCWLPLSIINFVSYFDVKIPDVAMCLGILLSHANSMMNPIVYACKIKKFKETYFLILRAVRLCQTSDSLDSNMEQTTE

[16] = target: T8, Adenosine receptor A1 (Rattus norvegicus, UniProt P25099); assay: Displacement of [3H]DPCPX from rat A1 receptor
T8 sequence (P25099 whole entry): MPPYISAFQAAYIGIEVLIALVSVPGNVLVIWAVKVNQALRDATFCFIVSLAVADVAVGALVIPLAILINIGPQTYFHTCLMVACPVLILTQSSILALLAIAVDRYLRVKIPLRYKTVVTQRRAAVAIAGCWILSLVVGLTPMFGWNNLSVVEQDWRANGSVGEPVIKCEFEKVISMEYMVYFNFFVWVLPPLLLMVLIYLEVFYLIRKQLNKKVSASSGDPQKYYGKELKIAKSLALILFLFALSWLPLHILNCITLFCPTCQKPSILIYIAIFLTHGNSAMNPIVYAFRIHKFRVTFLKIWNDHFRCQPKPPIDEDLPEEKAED

SMILES	inhibition at 10 µM [1] [%]	Ki [2] [nM]	Ki [3] [nM]	inhibition [7] [%]	also measured
Clc1ccc(C#Cc2nc(NC(C3CC3)C3CC3)c3nc[nH]c3n2)s1	6	37.1	1200	–	Ki [4]: 2020 nM
CCNc1nc(C#Cc2ccc(Cl)s2)nc2[nH]cnc12	18	33.1	–	32	Ki [5]: 5110 nM; Ki [6]: 1160 nM
CNC(=O)[C@@]12C[C@@H]1[C@@H](n1cnc3c(NC)nc(C#Cc4ccc(Cl)s4)nc31)[C@H](O)[C@@H]2O	–	–	–	< 10	inhibition (INH) [1]: 24%
Oc1ccc(CCNc2nc(C#Cc3ccc(Cl)s3)nc3[nH]cnc23)cc1O	5	–	–	28	Ki [8]: 1210 nM; Ki [9]: 3520 nM; inhibition [10]: 20%
CNc1nc(C#Cc2ccc(Cl)s2)nc2[nH]cnc12	–	79.2	–	25	Ki [11]: 1330 nM; inhibition at 10 µM [12]: 6.2%
COc1cc(CCNc2nc(C#Cc3ccc(Cl)s3)nc3[nH]cnc23)ccc1O	-3	6820	–	15	Ki [6]: 1390 nM; Ki [13]: 370 nM
Clc1cccc(CNc2nc(C#Cc3ccc(Cl)s3)nc3[nH]cnc23)c1	1	128	2710	–	Ki [14]: 1720 nM; Ki [13]: 900 nM
O=S(=O)(O)c1ccc(C#Cc2nc(NC(C3CC3)C3CC3)c3nc[nH]c3n2)cc1	21	–	–	54	inhibition [10]: 26%
Fc1ccc(C#Cc2nc(NCc3cccc(Cl)c3)c3nc[nH]c3n2)cc1F	< 10	–	–	–	–
Cn1cnc2c(NCCc3ccccc3)nc(C#Cc3ccc(Cl)s3)nc21	32	116	4850	–	inhibition [15]: 16%; Ki [4]: 3170 nM
CCCNc1nc(C#Cc2ccc(Cl)s2)nc2c1ncn2[C@H]1[C@H](O)[C@H](O)[C@]2(C(=O)NC)C[C@H]12	–	–	–	–	inhibition (INH) [1]: 34%
OC[C@H]1O[C@@H](n2cnc3c(N[C@H]4C[C@H]5CC[C@@H]4C5)ncnc32)[C@H](O)[C@@H]1O	–	915	0.38	–	Ki [11]: > 10000 nM; Ki [16]: 0.34 nM
